Experiments:
Experiment in all cases: relative viability (nuclei count vs DMSO), 5 days (fraction); higher = more cells survive
KN-93 + Crizotinib = compound: CN(C/C=C/C1=CC=C(C=C1)Cl)CC2=CC=CC=C2N(CCO)S(=O)(=O)C3=CC=C(C=C3)OC [KN-93] + C[C@@H](Oc1cc(-c2cnn(C3CCNCC3)c2)cnc1N)c1c(Cl)ccc(F)c1Cl [Crizotinib] (partner 1 µM)
Method in brief: (§1)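 Relative viability equals treated-well nuclei counts divided by vehicle-well nuclei counts. Counts came from 4× images of lung cancer cell lines grown in 1536-well plates for 5 days after pin-tool dosing on the day after seeding. Dosing used one drug alone or a fixed anchor-drug dose plus five library-drug doses (not always all listed) in √10 steps, and values are medians of duplicate plates.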

KN-93 + Olaparib = compound: CN(C/C=C/C1=CC=C(C=C1)Cl)CC2=CC=CC=C2N(CCO)S(=O)(=O)C3=CC=C(C=C3)OC [KN-93] + O=C(c1cc(Cc2n[nH]c(=O)c3ccccc23)ccc1F)N1CCN(C(=O)C2CC2)CC1 [Olaparib] (partner 8 µM)
Method in brief: as §1

KN-93 + Linsitinib = compound: CN(C/C=C/C1=CC=C(C=C1)Cl)CC2=CC=CC=C2N(CCO)S(=O)(=O)C3=CC=C(C=C3)OC [KN-93] + C[C@]1(O)C[C@@H](c2nc(-c3ccc4ccc(-c5ccccc5)nc4c3)c3c(N)nccn32)C1 [Linsitinib] (partner 1 µM)
Method in brief: as §1

KN-93 + Pemetrexed = compound: CN(C/C=C/C1=CC=C(C=C1)Cl)CC2=CC=CC=C2N(CCO)S(=O)(=O)C3=CC=C(C=C3)OC [KN-93] + Nc1nc2[nH]cc(CCc3ccc(C(=O)N[C@@H](CCC(=O)O)C(=O)O)cc3)c2c(=O)[nH]1 [Pemetrexed] (partner 0.2 µM)
Method in brief: as §1

KN-93 + Trametinib = compound: CN(C/C=C/C1=CC=C(C=C1)Cl)CC2=CC=CC=C2N(CCO)S(=O)(=O)C3=CC=C(C=C3)OC [KN-93] + CC(=O)Nc1cccc(-n2c(=O)n(C3CC3)c(=O)c3c(Nc4ccc(I)cc4F)n(C)c(=O)c(C)c32)c1 [Trametinib] (partner 0.02 µM)
Method in brief: as §1

NCI-H2126 was tested, and the relative viability (KN-93 + Crizotinib; first compound 0.08 µM) was 1.04, the relative viability (KN-93 + Crizotinib; first compound 0.253 µM) was 1.14 and the relative viability (KN-93 + Crizotinib; first compound 2.53 µM) was 1.07. For the same cell line, the relative viability (KN-93 + Crizotinib; first compound 8 µM) was 0.981, the relative viability (KN-93 + Olaparib; first compound 0.08 µM) was 0.819 and the relative viability (KN-93 + Olaparib; first compound 0.253 µM) was 1.08. For the same cell line, the relative viability (KN-93 + Olaparib; first compound 2.53 µM) was 0.931, the relative viability (KN-93 + Olaparib; first compound 8 µM) was 0.772 and the relative viability (KN-93 + Linsitinib; first compound 0.08 µM) was 0.785. The relative viability (KN-93 + Linsitinib; first compound 0.253 µM) was 0.673, the relative viability (KN-93 + Linsitinib; first compound 2.53 µM) was 0.713 and the relative viability (KN-93 + Linsitinib; first compound 8 µM) was 0.683. It also gave a relative viability (KN-93 + Pemetrexed; first compound 0.08 µM) of 0.541, a relative viability (KN-93 + Pemetrexed; first compound 0.253 µM) of 0.64 and a relative viability (KN-93 + Pemetrexed; first compound 2.53 µM) of 0.69. The relative viability (KN-93 + Pemetrexed; first compound 8 µM) was 0.654, the relative viability (KN-93 + Trametinib; first compound 0.08 µM) was 0.468 and the relative viability (KN-93 + Trametinib; first compound 0.253 µM) was 0.453. The relative viability (KN-93 + Trametinib; first compound 2.53 µM) was 0.593 and the relative viability (KN-93 + Trametinib; first compound 8 µM) was 0.466.

Work on NCI-H2228 yielded a relative viability (KN-93 + Crizotinib; first compound 0.08 µM) of 0.445, a relative viability (KN-93 + Crizotinib; first compound 0.253 µM) of 0.48 and a relative viability (KN-93 + Crizotinib; first compound 2.53 µM) of 0.526. For the same cell line, the relative viability (KN-93 + Crizotinib; first compound 8 µM) was 0.248, the relative viability (KN-93 + Olaparib; first compound 0.08 µM) was 0.617 and the relative viability (KN-93 + Olaparib; first compound 0.253 µM) was 0.611. For the same cell line, the relative viability (KN-93 + Olaparib; first compound 2.53 µM) was 0.8, the relative viability (KN-93 + Olaparib; first compound 8 µM) was 0.269 and the relative viability (KN-93 + Linsitinib; first compound 0.08 µM) was 0.581. For the same cell line, the relative viability (KN-93 + Linsitinib; first compound 0.253 µM) was 0.517, the relative viability (KN-93 + Linsitinib; first compound 2.53 µM) was 0.63 and the relative viability (KN-93 + Linsitinib; first compound 8 µM) was 0.314. For the same cell line, the relative viability (KN-93 + Pemetrexed; first compound 0.08 µM) was 0.407, the relative viability (KN-93 + Pemetrexed; first compound 0.253 µM) was 0.383 and the relative viability (KN-93 + Pemetrexed; first compound 2.53 µM) was 0.353. It also gave a relative viability (KN-93 + Pemetrexed; first compound 8 µM) of 0.252, a relative viability (KN-93 + Trametinib; first compound 0.08 µM) of 0.413 and a relative viability (KN-93 + Trametinib; first compound 0.253 µM) of 0.539. For the same cell line, the relative viability (KN-93 + Trametinib; first compound 2.53 µM) was 0.573 and the relative viability (KN-93 + Trametinib; first compound 8 µM) was 0.153.

In the case of NCI-H2347, the relative viability (KN-93 + Crizotinib; first compound 0.08 µM) is reported as 0.686, the relative viability (KN-93 + Crizotinib; first compound 0.253 µM) is reported as 0.731 and the relative viability (KN-93 + Crizotinib; first compound 2.53 µM) is reported as 0.739. For the same cell line, the relative viability (KN-93 + Crizotinib; first compound 8 µM) was 0.463, the relative viability (KN-93 + Olaparib; first compound 0.08 µM) was 0.491 and the relative viability (KN-93 + Olaparib; first compound 0.253 µM) was 0.59. For the same cell line, the relative viability (KN-93 + Olaparib; first compound 2.53 µM) was 0.606, the relative viability (KN-93 + Olaparib; first compound 8 µM) was 0.497 and the relative viability (KN-93 + Linsitinib; first compound 0.08 µM) was 1.07. For the same cell line, the relative viability (KN-93 + Linsitinib; first compound 0.253 µM) was 0.922, the relative viability (KN-93 + Linsitinib; first compound 2.53 µM) was 0.918 and the relative viability (KN-93 + Linsitinib; first compound 8 µM) was 0.797. The relative viability (KN-93 + Pemetrexed; first compound 0.08 µM) was 0.376, the relative viability (KN-93 + Pemetrexed; first compound 0.253 µM) was 0.473 and the relative viability (KN-93 + Pemetrexed; first compound 2.53 µM) was 0.45. The relative viability (KN-93 + Pemetrexed; first compound 8 µM) was 0.549, the relative viability (KN-93 + Trametinib; first compound 0.08 µM) was 0.28 and the relative viability (KN-93 + Trametinib; first compound 0.253 µM) was 0.316. It also gave a relative viability (KN-93 + Trametinib; first compound 2.53 µM) of 0.282 and a relative viability (KN-93 + Trametinib; first compound 8 µM) of 0.26.

In the case of NCI-H2405, the relative viability (KN-93 + Crizotinib; first compound 0.08 µM) is reported as 0.853, the relative viability (KN-93 + Crizotinib; first compound 0.253 µM) is reported as 0.832 and the relative viability (KN-93 + Crizotinib; first compound 2.53 µM) is reported as 0.873. The relative viability (KN-93 + Crizotinib; first compound 8 µM) was 0.665, the relative viability (KN-93 + Olaparib; first compound 0.08 µM) was 0.937 and the relative viability (KN-93 + Olaparib; first compound 0.253 µM) was 0.798. The relative viability (KN-93 + Olaparib; first compound 2.53 µM) was 0.916, the relative viability (KN-93 + Olaparib; first compound 8 µM) was 0.693 and the relative viability (KN-93 + Linsitinib; first compound 0.08 µM) was 0.984. It also gave a relative viability (KN-93 + Linsitinib; first compound 0.253 µM) of 0.908, a relative viability (KN-93 + Linsitinib; first compound 2.53 µM) of 0.924 and a relative viability (KN-93 + Linsitinib; first compound 8 µM) of 0.564. It also gave a relative viability (KN-93 + Pemetrexed; first compound 0.08 µM) of 1.06, a relative viability (KN-93 + Pemetrexed; first compound 0.253 µM) of 1.24 and a relative viability (KN-93 + Pemetrexed; first compound 2.53 µM) of 1.02. It also gave a relative viability (KN-93 + Pemetrexed; first compound 8 µM) of 0.775, a relative viability (KN-93 + Trametinib; first compound 0.08 µM) of 0.603 and a relative viability (KN-93 + Trametinib; first compound 0.253 µM) of 0.598. For the same cell line, the relative viability (KN-93 + Trametinib; first compound 2.53 µM) was 0.665 and the relative viability (KN-93 + Trametinib; first compound 8 µM) was 0.491.

For NCI-H3122, the relative viability (KN-93 + Crizotinib; first compound 0.08 µM) was 0.287, the relative viability (KN-93 + Crizotinib; first compound 0.253 µM) was 0.31 and the relative viability (KN-93 + Crizotinib; first compound 2.53 µM) was 0.299. It also gave a relative viability (KN-93 + Crizotinib; first compound 8 µM) of 0.264, a relative viability (KN-93 + Olaparib; first compound 0.08 µM) of 0.491 and a relative viability (KN-93 + Olaparib; first compound 0.253 µM) of 0.571. It also gave a relative viability (KN-93 + Olaparib; first compound 2.53 µM) of 0.763, a relative viability (KN-93 + Olaparib; first compound 8 µM) of 0.53 and a relative viability (KN-93 + Linsitinib; first compound 0.08 µM) of 1.08. The relative viability (KN-93 + Linsitinib; first compound 0.253 µM) was 0.803, the relative viability (KN-93 + Linsitinib; first compound 2.53 µM) was 1.23 and the relative viability (KN-93 + Linsitinib; first compound 8 µM) was 0.882. For the same cell line, the relative viability (KN-93 + Pemetrexed; first compound 0.08 µM) was 0.199, the relative viability (KN-93 + Pemetrexed; first compound 0.253 µM) was 0.194 and the relative viability (KN-93 + Pemetrexed; first compound 2.53 µM) was 0.19. For the same cell line, the relative viability (KN-93 + Pemetrexed; first compound 8 µM) was 0.341, the relative viability (KN-93 + Trametinib; first compound 0.08 µM) was 0.2 and the relative viability (KN-93 + Trametinib; first compound 0.253 µM) was 0.21. For the same cell line, the relative viability (KN-93 + Trametinib; first compound 2.53 µM) was 0.264 and the relative viability (KN-93 + Trametinib; first compound 8 µM) was 0.194.

PC-3 [JPC-3] was tested, and the relative viability (KN-93 + Crizotinib; first compound 0.08 µM) was 0.953, the relative viability (KN-93 + Crizotinib; first compound 0.253 µM) was 1.2 and the relative viability (KN-93 + Crizotinib; first compound 2.53 µM) was 1.06. For the same cell line, the relative viability (KN-93 + Crizotinib; first compound 8 µM) was 0.886, the relative viability (KN-93 + Olaparib; first compound 0.08 µM) was 0.929 and the relative viability (KN-93 + Olaparib; first compound 0.253 µM) was 1.06. For the same cell line, the relative viability (KN-93 + Olaparib; first compound 2.53 µM) was 1.23, the relative viability (KN-93 + Olaparib; first compound 8 µM) was 0.956 and the relative viability (KN-93 + Linsitinib; first compound 0.08 µM) was 1.02. The relative viability (KN-93 + Linsitinib; first compound 0.253 µM) was 1.02, the relative viability (KN-93 + Linsitinib; first compound 2.53 µM) was 0.995 and the relative viability (KN-93 + Linsitinib; first compound 8 µM) was 0.876. The relative viability (KN-93 + Pemetrexed; first compound 0.08 µM) was 1.15, the relative viability (KN-93 + Pemetrexed; first compound 0.253 µM) was 1.37 and the relative viability (KN-93 + Pemetrexed; first compound 2.53 µM) was 0.898. It also gave a relative viability (KN-93 + Pemetrexed; first compound 8 µM) of 0.858, a relative viability (KN-93 + Trametinib; first compound 0.08 µM) of 0.703 and a relative viability (KN-93 + Trametinib; first compound 0.253 µM) of 0.533. For the same cell line, the relative viability (KN-93 + Trametinib; first compound 2.53 µM) was 0.674 and the relative viability (KN-93 + Trametinib; first compound 8 µM) was 0.608.

— the supplement of paper PMC10307832
